Blank lines part the entries; values can stand above or below the molecule they belong to. Activity calls are given as the source filed them. Unless noted, the rule behind the calls is not given here.
Columns and labels:
Insulin-degrading enzyme = target: T1, Insulin-degrading enzyme (Homo sapiens, UniProt P14735); assay: Dose Response: Fluorescence polarization-based cell-based high throughput dose response assay for inhibitors of insulin-degrading enzyme (IDE). [Related pubchem assays: 434962 (Primary screen (IDE inhibitors in singlicate)), 449730 (Counterscreen (Cytotoxicity in triplicate)), 435028 (Confirmation (IDE inhibitors in triplicate)), 434984 (Summary …; format: functional
T1 sequence (P14735 whole entry): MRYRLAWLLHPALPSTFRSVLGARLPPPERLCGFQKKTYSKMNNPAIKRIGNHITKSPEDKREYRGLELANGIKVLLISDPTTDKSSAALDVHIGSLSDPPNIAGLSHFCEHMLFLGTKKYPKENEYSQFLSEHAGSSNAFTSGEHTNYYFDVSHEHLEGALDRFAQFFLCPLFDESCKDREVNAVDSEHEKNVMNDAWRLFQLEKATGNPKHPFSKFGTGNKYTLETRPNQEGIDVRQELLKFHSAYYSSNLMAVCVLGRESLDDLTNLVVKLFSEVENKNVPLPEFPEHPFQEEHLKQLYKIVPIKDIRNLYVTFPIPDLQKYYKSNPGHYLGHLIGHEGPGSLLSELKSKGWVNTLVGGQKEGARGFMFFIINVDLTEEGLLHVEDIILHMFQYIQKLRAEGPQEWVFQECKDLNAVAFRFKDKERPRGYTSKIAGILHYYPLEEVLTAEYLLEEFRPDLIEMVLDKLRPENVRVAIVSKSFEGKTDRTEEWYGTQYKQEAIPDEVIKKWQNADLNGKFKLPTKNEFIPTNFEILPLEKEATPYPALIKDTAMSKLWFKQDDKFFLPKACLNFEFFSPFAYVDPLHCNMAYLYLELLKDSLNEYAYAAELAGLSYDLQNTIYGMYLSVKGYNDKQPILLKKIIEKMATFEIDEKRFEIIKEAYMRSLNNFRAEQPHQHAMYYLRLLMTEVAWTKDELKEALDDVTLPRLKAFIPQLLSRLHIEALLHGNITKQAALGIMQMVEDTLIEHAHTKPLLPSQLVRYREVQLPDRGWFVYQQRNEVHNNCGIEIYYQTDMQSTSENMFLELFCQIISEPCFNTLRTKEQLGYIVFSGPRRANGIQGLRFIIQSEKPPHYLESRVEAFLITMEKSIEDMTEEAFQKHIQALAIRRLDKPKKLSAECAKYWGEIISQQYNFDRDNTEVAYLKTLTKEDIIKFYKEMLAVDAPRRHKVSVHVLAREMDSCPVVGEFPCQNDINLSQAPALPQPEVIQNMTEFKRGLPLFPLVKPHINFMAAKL

[1] = target: T2, Corticotropin-releasing factor receptor 2/Corticotropin-releasing factor-binding protein (Homo sapiens, UniProt P24387+Q13324); assay: activators of CRF receptor 2 with binding protein – uHTS hits, confirmation (AID 602473); format: functional; settings: read-out: EC50_Mean
T2 sequence (Q13324 whole entry): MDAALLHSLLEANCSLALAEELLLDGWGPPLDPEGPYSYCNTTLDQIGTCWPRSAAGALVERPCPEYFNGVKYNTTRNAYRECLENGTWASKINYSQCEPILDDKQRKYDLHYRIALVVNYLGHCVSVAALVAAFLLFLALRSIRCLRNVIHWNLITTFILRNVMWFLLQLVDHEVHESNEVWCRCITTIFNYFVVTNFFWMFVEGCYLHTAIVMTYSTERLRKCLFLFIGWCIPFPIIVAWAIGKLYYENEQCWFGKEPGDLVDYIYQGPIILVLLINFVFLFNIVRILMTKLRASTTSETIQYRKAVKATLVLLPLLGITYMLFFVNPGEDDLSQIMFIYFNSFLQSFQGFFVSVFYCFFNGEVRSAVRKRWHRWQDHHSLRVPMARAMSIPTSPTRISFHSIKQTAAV
T2 sequence (P24387 whole entry): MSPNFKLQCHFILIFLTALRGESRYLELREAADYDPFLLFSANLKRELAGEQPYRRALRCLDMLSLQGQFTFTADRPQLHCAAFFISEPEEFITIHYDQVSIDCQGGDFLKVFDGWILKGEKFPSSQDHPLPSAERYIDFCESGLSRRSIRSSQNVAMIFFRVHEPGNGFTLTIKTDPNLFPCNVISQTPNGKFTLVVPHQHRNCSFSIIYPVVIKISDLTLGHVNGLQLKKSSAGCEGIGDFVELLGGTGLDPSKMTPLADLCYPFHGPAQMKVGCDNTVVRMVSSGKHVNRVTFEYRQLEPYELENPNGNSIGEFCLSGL

Caspase-3 = target: T3, Caspase-3 (Homo sapiens, UniProt P42574); assay: activators of human procaspase-3 D3A mutant – biochemical, absorbance, PC-3 D3A mutant, counter-screen for dual procaspase-3/7 activator project, dose response (AID 504328)
T3 sequence (P42574 whole entry): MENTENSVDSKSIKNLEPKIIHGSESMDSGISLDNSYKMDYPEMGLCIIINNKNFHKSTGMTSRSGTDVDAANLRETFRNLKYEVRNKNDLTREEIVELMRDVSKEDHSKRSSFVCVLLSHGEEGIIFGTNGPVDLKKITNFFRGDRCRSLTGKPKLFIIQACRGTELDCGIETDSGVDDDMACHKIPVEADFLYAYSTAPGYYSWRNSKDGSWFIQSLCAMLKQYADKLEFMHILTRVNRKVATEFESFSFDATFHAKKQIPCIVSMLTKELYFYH

Caspase-7 = Caspase-7 (Homo sapiens, UniProt P55210); assay: potency of procaspase-7 enzyme activation – biochemical, absorbance, human, dual procaspase-3/-7 activator project, dose response (AID 504330)
[2] = Counterscreen for IDE inhibitors: Luminescence-based cell-based high throughput dose response assay to identify compounds that are cytotoxic to HEK cells. [Related pubchem assays: 434962 (Primary screen (IDE inhibitors in singlicate)), 449730 (Counterscreen (Cytotoxicity in triplicate)), 435028 (Confirmation (IDE inhibitors in triplicate)) …; format: functional; settings: HEK293
Phosphomannomutase 2 = Phosphomannomutase 2 (Homo sapiens, UniProt O15305); assay: Counter screen SAR assay for PMM2 inhibitors via a fluorescence intensity assay. [Related pubchem assays (depositor defined):AID1545, AID1574]
Phosphomannomutase 2, sequence (O15305 whole entry): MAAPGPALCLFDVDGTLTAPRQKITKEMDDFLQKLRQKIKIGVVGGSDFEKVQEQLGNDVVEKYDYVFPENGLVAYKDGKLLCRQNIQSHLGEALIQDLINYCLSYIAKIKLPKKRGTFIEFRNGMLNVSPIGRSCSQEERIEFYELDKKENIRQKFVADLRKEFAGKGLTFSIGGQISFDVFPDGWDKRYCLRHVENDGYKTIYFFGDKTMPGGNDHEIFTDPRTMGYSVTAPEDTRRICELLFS

[3] = target: Phosphoethanolamine/phosphocholine phosphatase (Homo sapiens, UniProt Q8TCT1); assay: SAR assay for compounds that inhibit PHOSPHO1. [Related pubchem assays (depositor defined):AID1545, AID1565, AID1574]
[4] = target: T4, Mannose-6-phosphate isomerase (Homo sapiens, UniProt P34949); assay: phosphomannose isomerase inhibition – biochemical, fluorescence intensity, confirmation (AID 1535)
T4 sequence (P34949 whole entry): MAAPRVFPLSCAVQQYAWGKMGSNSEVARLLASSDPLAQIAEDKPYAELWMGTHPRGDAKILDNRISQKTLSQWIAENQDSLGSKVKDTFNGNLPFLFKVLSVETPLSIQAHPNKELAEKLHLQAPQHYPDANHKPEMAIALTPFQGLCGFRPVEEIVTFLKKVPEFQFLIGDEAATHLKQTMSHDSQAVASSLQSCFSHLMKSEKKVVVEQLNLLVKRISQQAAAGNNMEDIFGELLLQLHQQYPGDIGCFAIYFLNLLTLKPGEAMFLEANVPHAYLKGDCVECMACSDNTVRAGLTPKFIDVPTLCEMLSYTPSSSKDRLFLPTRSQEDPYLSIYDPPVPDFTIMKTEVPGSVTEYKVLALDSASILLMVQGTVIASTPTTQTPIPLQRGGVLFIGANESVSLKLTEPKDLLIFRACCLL

Collagenase 3 = Collagenase 3 (Homo sapiens, UniProt P45452); assay: potency against MMP13, MMP2, MMP3, MMP14 – biochemical, probe development, late stage results, selectivity assay for MMP13 inhibitor project, late-stage follow-up, panel member MMP-13 [IC50 Assay] (AID 2067)
Neutrophil collagenase = Neutrophil collagenase (Homo sapiens, UniProt P22894); assay: potency against MMP13, MMP2, MMP3, MMP14 – biochemical, probe development, late stage results, selectivity assay for MMP13 inhibitor project, late-stage follow-up, panel member MMP-8 [IC50 Assay] (AID 2067)
Neutrophil collagenase, sequence (P22894 whole entry): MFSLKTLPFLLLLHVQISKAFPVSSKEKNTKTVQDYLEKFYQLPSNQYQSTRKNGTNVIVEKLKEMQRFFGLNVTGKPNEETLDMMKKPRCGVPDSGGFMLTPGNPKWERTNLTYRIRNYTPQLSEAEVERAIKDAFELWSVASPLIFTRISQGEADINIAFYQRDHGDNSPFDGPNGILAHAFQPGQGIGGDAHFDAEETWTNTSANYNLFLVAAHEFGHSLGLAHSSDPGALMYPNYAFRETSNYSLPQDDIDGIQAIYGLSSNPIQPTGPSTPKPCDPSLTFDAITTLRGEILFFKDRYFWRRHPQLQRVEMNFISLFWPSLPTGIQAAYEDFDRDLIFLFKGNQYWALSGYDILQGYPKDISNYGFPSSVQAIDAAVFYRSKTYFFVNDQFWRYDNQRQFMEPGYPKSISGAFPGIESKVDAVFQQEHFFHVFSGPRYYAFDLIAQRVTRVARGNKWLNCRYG

SUMO E1/E2 = SUMO E1/E2 (Homo sapiens, UniProt P63279+Q9UBE0+Q9UBT2); assay: SAR analysis of SUMOylation using HTRF in an in-Vitro dose response assay. [Related pubchem assays (depositor defined):AID2006, AID2011, AID2018, AID2069, AID2658]; format: functional
SUMO E1/E2, sequence (Q9UBE0 whole entry): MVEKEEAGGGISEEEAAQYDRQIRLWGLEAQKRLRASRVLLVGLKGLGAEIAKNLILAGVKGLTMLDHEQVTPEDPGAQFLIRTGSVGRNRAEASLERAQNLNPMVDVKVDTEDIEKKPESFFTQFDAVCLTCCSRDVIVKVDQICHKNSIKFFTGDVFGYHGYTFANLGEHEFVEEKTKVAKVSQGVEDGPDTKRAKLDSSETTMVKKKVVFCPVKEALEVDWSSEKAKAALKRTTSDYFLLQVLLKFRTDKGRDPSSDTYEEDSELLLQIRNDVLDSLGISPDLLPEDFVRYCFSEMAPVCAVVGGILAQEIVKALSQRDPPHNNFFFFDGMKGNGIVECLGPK
SUMO E1/E2, sequence (Q9UBT2 whole entry): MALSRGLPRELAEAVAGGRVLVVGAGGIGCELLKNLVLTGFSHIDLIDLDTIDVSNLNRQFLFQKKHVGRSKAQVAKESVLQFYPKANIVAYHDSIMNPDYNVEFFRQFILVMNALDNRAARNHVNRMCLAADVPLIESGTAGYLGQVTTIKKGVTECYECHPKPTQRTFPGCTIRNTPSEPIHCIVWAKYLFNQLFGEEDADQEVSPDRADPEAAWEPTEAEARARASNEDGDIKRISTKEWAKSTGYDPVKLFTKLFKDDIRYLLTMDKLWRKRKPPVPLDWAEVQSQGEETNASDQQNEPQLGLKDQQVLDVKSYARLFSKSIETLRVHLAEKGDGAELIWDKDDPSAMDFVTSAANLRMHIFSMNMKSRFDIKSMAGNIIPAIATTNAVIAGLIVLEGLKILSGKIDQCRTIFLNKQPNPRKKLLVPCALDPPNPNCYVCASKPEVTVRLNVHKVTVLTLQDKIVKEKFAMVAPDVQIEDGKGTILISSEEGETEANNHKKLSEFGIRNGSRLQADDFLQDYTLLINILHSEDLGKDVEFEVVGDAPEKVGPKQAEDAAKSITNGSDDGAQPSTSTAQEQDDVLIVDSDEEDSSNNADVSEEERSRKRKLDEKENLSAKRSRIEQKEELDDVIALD
SUMO E1/E2, sequence (P63279 whole entry): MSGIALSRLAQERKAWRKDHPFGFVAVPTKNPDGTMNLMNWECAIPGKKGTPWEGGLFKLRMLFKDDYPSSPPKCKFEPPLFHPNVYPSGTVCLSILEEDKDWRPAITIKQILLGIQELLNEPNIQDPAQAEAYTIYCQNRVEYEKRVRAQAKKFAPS

[5] = target: T5, Voltage-gated N-type calcium channel alpha-1B subunit/Amyloid beta A4 precursor protein-binding family A member 1 (Homo sapiens, UniProt Q00975+Q02410); assay: disruptors of Mint-PDZ/N-type channel peptide interaction – biochemical, HTRF, set 2, SAR follow-up (AID 434980); format: functional
T5 sequence (Q00975 whole entry): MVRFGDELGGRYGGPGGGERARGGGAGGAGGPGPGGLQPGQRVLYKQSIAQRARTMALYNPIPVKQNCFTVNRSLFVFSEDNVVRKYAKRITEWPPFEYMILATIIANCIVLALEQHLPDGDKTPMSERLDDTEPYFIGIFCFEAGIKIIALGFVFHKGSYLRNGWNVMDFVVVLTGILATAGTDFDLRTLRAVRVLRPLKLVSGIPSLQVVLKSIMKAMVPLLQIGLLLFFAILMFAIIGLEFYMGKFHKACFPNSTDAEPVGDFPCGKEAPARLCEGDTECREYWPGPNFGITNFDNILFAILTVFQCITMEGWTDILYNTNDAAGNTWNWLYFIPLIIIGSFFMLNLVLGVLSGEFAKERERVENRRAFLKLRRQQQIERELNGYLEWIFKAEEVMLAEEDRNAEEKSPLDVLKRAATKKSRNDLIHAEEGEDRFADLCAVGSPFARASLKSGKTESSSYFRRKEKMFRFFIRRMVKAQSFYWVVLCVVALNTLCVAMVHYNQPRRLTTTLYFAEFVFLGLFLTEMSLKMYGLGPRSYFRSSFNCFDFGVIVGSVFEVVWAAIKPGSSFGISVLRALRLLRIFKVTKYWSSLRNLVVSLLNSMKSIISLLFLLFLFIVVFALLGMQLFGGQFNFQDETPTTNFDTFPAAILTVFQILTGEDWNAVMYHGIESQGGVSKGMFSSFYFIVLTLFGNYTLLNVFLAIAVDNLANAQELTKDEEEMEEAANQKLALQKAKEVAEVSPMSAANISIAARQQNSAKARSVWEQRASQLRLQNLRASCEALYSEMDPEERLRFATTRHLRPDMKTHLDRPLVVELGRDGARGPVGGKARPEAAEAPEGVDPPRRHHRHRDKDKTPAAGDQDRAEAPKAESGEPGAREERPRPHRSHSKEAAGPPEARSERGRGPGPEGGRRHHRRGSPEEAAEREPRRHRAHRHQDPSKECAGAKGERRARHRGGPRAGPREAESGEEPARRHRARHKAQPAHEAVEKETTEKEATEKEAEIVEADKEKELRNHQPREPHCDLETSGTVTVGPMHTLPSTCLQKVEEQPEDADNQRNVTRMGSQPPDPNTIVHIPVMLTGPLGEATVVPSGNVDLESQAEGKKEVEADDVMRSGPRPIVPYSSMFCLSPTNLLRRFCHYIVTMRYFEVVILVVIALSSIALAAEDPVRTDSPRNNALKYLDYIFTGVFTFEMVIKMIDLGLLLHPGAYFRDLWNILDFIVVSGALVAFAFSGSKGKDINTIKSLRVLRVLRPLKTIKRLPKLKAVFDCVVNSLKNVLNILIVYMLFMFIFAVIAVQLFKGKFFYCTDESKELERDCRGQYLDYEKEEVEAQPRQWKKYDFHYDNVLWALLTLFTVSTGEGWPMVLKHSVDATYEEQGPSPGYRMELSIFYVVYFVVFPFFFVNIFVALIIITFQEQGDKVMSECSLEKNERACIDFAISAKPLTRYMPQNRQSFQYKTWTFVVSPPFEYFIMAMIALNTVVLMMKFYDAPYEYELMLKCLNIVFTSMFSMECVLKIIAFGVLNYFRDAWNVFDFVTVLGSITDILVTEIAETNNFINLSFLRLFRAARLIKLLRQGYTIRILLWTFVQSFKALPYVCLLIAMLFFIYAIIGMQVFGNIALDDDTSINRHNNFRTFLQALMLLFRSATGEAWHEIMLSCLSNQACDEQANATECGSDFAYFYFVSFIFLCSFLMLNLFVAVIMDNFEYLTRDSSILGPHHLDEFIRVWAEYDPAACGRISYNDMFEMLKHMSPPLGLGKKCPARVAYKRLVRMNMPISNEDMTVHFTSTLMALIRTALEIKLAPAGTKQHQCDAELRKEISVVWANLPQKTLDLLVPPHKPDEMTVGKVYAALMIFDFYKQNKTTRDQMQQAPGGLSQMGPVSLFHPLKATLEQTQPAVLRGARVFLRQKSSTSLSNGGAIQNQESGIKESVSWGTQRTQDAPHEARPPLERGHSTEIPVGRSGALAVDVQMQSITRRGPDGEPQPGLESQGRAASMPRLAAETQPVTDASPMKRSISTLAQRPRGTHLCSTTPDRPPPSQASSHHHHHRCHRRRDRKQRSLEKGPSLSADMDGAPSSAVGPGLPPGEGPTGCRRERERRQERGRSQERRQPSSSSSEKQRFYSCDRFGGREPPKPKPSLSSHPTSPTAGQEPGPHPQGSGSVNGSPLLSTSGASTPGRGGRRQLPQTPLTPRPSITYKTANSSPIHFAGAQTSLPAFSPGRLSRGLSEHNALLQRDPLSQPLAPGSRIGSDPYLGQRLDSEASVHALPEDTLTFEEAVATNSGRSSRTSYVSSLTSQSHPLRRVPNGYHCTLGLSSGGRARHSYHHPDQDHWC
T5 sequence (Q02410 whole entry): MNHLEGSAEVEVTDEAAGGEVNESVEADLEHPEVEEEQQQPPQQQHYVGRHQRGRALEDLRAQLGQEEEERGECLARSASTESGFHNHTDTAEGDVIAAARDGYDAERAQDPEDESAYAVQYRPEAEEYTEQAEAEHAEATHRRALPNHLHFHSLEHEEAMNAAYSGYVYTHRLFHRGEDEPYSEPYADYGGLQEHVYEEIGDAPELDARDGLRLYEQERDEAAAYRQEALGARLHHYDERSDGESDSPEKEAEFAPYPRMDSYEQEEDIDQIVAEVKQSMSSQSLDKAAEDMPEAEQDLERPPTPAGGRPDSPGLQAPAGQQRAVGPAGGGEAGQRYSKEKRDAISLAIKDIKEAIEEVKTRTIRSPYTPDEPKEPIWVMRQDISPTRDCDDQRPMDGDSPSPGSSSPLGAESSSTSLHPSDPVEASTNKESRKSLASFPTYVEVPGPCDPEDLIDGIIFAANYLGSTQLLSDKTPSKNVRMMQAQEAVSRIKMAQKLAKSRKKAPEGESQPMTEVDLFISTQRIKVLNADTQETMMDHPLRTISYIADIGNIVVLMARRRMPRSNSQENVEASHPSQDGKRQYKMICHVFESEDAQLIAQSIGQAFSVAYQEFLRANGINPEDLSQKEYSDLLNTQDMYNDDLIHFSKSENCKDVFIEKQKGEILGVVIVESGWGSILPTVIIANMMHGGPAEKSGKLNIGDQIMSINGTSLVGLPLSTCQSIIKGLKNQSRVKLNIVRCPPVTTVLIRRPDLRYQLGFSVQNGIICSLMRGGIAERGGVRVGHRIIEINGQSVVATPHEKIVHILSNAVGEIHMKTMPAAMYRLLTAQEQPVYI

[6] = target: T5, Voltage-gated N-type calcium channel alpha-1B subunit/Amyloid beta A4 precursor protein-binding family A member 1; assay: disruptors of Mint-PDZ/N-type channel peptide interaction – biochemical, HTRF, SAR follow-up (AID 2489); format: functional
[7] = Trypanosoma cruzi growth suppression in host cells – NIH3T3 host cells, beta-gal luminescence, confirmation (AID 2044); format: functional, cell-based;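 also: intracellular parasites grown in NIH/3T3 mouse fibroblasts as host cells; luminescent beta-galactosidase reporter signal from transgenic T. cruzi replicating inside host cells; inhibitors lower the luminescence signal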
[8] = target: T6, Voltage-dependent T-type calcium channel subunit alpha-1H (Homo sapiens, UniProt O95180); assay: Inhibitors of T-Type Calcium Channels. [Related pubchem assays (depositor defined):AID449739, AID463087, AID489005, AID493041, AID504579, AID504584, AID504619, AID504628]; format: functional
[9] = NIH3T3 cell viability loss – ATP luminescence, mouse fibroblasts, counter-screen, dose response (AID 2010); format: functional, cell-based;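 also: cells exposed to compound for about 90 hours before reading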
[10] = target: T6, Voltage-dependent T-type calcium channel subunit alpha-1H; format: functional

Structure (SMILES): O=C(C1=NN(c2ccccc2)C2C(=O)N(c3ccccc3)C(=O)C12)c1ccccc1 (configuration not stated)
IC50 (Insulin-degrading enzyme): 25.5 µM (not active) | EC50 [1]: 14.6 µM (active) | EC50 (Caspase-3): > 85.3 µM (inactive) | EC50 (Caspase-7): > 85.3 µM (inactive) | IC50 [2]: > 55.7 µM (not active)

Structure (SMILES): O=c1[nH]c(SCc2ccc(OC(F)(F)F)cc2)nc2c1CCC2
IC50 (Collagenase 3): > 39.8 µM (active) | IC50 (Neutrophil collagenase): > 39.8 µM (inactive)

Structure (SMILES): CCc1ccc(-c2nc(CN3CCCC(C(=O)NCCc4ccc(OC)c(OC)c4)C3)c(C)o2)cc1 (configuration not stated)
EC50 [7]: 0.161 µM (active) | EC50 [8]: 3.95 µM (active) | EC50 [9]: > 60 µM (not active) | EC50 [10]: 5.02 µM (active)

Other lines, results leading:

IC50 (Phosphomannomutase 2): 3.37 µM (active) | IC50 [3]: 0.384 µM (active) | IC50 [4]: 44.9 µM (active)
Structure (SMILES): O=c1c2ccc(F)cc2sn1-c1cc(Cl)ccc1Cl

IC50 (SUMO E1/E2): 2.18 µM (active) | IC50 [5]: 8.83 µM (active) | IC50 [6]: 21.9 µM (active)
Structure (SMILES): O=C(COC(=O)c1cc(-c2ccco2)nc2ccccc12)NC(=O)c1ccccc1

Source: ChEMBL document CHEMBL1201862, “PubChem BioAssay data set” (2004)
